In brackets after ≈: the same amount, converted by molar mass. Structures can show the parent of a compound that is named as a salt. Where two headings read alike, the source gives them in different places.
Experiments:
male mice = experiment: Inhibition of arachidonic acid-induced ear inflammation in mice; type: in vivo; settings: for inhibition in vivo at 200 mg/kg: Mus musculus, po, 1 h
Procedure: Inhibition of Arachidonic Acid-induced Ear Inflammation in Mice (Opas E. E. et al.: J. Invest. Dermatol. 84, 253 (1985) Ear inflammation was induced in male mice by 20 μl of arachidonic acid dissolved in acetone (concentration 100 mg/ml). The mice were sacrificed 1 h after application of arachidonic acid and the ears were cut off by standard means. The other, vehicle-treated ear of the same animal served as a control. The degree of ear hyperemia and the weight of ear lobes were evaluated. Test compounds were administered orally 1 h before the induction of inflammation.

rats = experiment: Inhibition of carrageenan-induced pleuritis in rats; type: in vivo; settings: dose 100 mg/kg, oral, values with mark n: p > 0.05; for inhibition in vivo at 100 mg/kg: Rattus norvegicus, po, 4 h
Procedure: Inhibition of Carrageenan-induced Pleuritis in Rats
(Hidaka T. J.: Pharm. Pharmacol. 38, 242 (1986) 1 ml of 0.5% carrageenan solution in saline was administered intrapleurally to experimental animals under mild ether anesthesia. Test drugs were administered in single oral dose 1 h before carrageenan injection, 4 h following the carrageenan application the rats were killed and exudate was withdrawn from opened pleural cavity. The volume of exudate, its cellularity and total cell number were determined.

[1] = tested on: LTB4 production in rat polymorphonuclear cells; experiment: Ex vivo inhibition of LTB4 production (LTB4 biosynthesis); type: cell-based; settings: for IC50: Rattus norvegicus, read-out: Inh. of LTB4 biosynth., IC50; for Inh. of LTB4 biosynth., %: at 30 μg (%/μg)
Procedure: Ex vivo Inhibition of LTB4 Production The production of LTB4 was determined in rat polymorphonuclear cells from pleural exudate elicited by heat-activated rat serum (Palmer R. M. J., Salmon J. A.: Immunology 50, 65 (1983)). The cells were stimulated with the Ca ionophore A 23187 (Sigma) and incubated with various concentrations of the drugs tested. The sample containing only buffer was used for the determination of unaffected biosynthesis; the complete inhibition was measured in a sample with 100 μg of NDGA in 1 ml. LTB4 was determined in supernatant using a commercial RIA kit (Amersham).

Wistar-Han rats = experiment: Inhibition of carrageenan edema; type: in vivo; settings: dose 100 mg/kg; for inhibition in vivo at 100 mg/kg: Rattus norvegicus, read-out: CE: inhibition of carrageenan-induced edema, % of inh.
[2] = tested on: bronchospasm induced by LTD4; experiment: Inhibition of bronchospasm induced by LTD4; type: in vivo; settings: for Inhibition of bronchospasm induced by LTD4, % of inhibition: dose 100 mg/kg
Procedure: (§1) Inhibition of Allergic Bronchospasm Induced by […] (Compound 48/80 or Ovalbumin, Respectively)
(§2) The modified method of Kreutner W. et al (Krelutner W. et al.: Agents Actions 28, 253 (1989)) was used. Bronchoconstrictioin was induced by intravenous injection of 1 μg/kg LTD4 (3 mg/kg of compound […] or 0.35 mg/kg of ovalbumin, respectively). In the case of oval-bumin, the animals were senzitized by intraperitoneal injection of ovalbumin (100 mg/kg) 14 days before induction. The compounds tested were applied 5 min before the administration of the inductor; the vehiculum used for the application of compound tested was administered to the control group of animals. The tracheal pressure was determined in the intervals of 2, 4 and 10 minutes after induction. The effect was expressed in percentage inhibition of bronchospasm relative to the untreated control.

[3] = tested on: peroxidation of lipids from the hepatic cells membranes; experiment: Antioxidant effect in vitro; type: biochemical; settings: at 100 μg
Source text: Antioxidant Effect in vitro
The end-product, malonic dialdehyde, was transformed to coloured complex with thiobarbituric acid and determined spectrophotometrically. The antioxidant effect was expressed in % of peroxidation inhibition in the presence of the compound tested in comparison to a control sample.

LTB4 receptor = LTB4 receptor (Cavia porcellus, UniProt H0VYV8); experiment: LTB4 receptor binding study; settings: 3H-LTB4, guinea-pig spleen membranes; for IC50: read-out: Inh. of LTB4 rec. binding, IC50; for inhibition at 20 µM: read-out: Inh. of LTB4 rec. binding, %
Procedure: LTB4 Receptor Binding Study
A slightly modified method of Cheng and coworkers (Cheng J. B. et al.: J. Pharm. Expl. Ther. 236, 126 (1986)) was used. The membrane fraction was prepared from male guinea-pig spleen; 2 mg of membranes were incubated with 0.3 nM ^3 H-LTB4 at 25° C. for 30 min in 100 μl of the incubated mixture. The nonspecific binding was determined in the presence of 0.1 μM LTB4. The membranes were filtered though Whatman GF/C paper and washed triply with buffer. The radioactivity was measured by liquid scintillation spectrometry, and the specific binding of ^3 H-LTB4 to the receptor was determined.

LTD4 receptor = biological target: T1, LTD4 receptor (Cavia porcellus, UniProt Q2NNR5); experiment: LTD4 receptor binding study; settings: 3H-LTD4, guinea-pig lung membranes; for IC50: read-out: Inh. of LTD4 rec. binding, IC50
T1 construct: The membrane fraction was prepared from male guinea-pig lungs; from tissue; host or cells: male guinea-pig lung membranes
T1 sequence (Q2NNR5 1-340): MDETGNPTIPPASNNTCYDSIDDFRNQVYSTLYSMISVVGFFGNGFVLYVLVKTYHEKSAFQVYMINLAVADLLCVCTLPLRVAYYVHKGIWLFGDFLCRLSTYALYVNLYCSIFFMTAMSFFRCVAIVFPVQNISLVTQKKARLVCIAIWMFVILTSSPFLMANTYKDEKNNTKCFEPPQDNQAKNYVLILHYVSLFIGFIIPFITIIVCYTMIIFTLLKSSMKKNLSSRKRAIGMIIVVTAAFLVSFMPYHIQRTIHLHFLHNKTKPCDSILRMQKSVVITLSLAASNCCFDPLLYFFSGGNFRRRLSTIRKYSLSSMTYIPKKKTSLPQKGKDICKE
Procedure: LTD4 Receptor Binding Study
This study was performed according to the method of Burns and coworkers (Burns R. F. et al.: Life Sci. 33, 645 (1983)). The membrane fraction was prepared from male guinea-pig lungs, and 4 mg of this fraction were incubated with 0.4 nM ^3 H-LTD4 for 60 min at 25° C. in 100 μl of the incubated mixture. The nonspecific binding was determined in the presence of 0.1 μM LTD4. The filtration of the membranes, washing, and radioactivity measurement were as above.

[4] = tested on: bronchospasm induced by ovalbumin; experiment: Inhibition of bronchospasm induced by ovalbumin; type: in vivo; settings: dose 100 mg/kg
Procedure: as §1, §2

[5] = values with mark n: p > 0.05, read-out: Ear edema, D: edema of ear lobe, % of inh.
[6] = values with mark n: p > 0.05, read-out: Ear edema, E: hyperemia of ear lobe, % of inh.
[7] = read-out: Experimental pleuritis, A: volume of exudate in pleural cavity, % of inh.
[8] = read-out: Experimental pleuritis, B: number of cells, % of inh.
[9] = read-out: Experimental pleuritis, C: cellularity in a volume unit, % of inh.
[10] = read-out: Inh. of LTD4 rec. binding, %
[11] = dose 200 mg/kg, oral, values with mark n: p > 0.05, 200 mg/kg

LTB4 receptor, sequence (H0VYV8 1-348): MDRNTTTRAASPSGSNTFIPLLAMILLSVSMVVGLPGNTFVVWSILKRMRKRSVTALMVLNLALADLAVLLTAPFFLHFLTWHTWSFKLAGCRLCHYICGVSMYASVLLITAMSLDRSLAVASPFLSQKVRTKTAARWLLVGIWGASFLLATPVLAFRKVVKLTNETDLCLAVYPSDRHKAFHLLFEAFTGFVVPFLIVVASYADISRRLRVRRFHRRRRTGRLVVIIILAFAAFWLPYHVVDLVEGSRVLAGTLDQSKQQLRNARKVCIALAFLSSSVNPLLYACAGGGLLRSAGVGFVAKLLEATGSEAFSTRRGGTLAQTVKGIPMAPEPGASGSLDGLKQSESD

SMILES | inhibition in vivo at 200 mg/kg (male mice; [5]) | inhibition in vivo at 200 mg/kg (male mice; [6]) | inhibition in vivo at 100 mg/kg (rats; [7]) | inhibition in vivo at 100 mg/kg (rats; [8]) | inhibition in vivo at 100 mg/kg (rats; [9]) | IC50 [1] | Inh. of LTB4 biosynth., % [1] | inhibition in vivo at 100 mg/kg (Wistar-Han rats) | Antiox. effect, % of peroxidation inhibition [3] | IC50 (LTB4 receptor) | inhibition at 20 µM (LTB4 receptor; at 20 μM) | IC50 (LTD4 receptor) | inhibition at 100 µM (LTD4 receptor; [10]) | also measured
CCCc1c(OCCCOc2cccc(Sc3ccc(C(=O)O)cc3)c2)ccc(C(C)=O)c1O [Compound 5, 4-(3-(3-(4-Acetyl-3-hydroxy-2-propylphenoxy)propoxy)phenylsulfanyl)benzoic Acid] | 1% | 0% | 10% | 46% | 61% | 0.05 µg/mL (≈ 0.104 µM) | 100% | 14% | 75% | 9.6 µM | 65% | 15.1 µM | 97% | inhibition in vivo at 100 mg/kg ([2]; 4 min): 16%
CON1CC/C(=C\c2cc(C(C)(C)C)c(O)c(C(C)(C)C)c2)C1=O [E 5110, reference compound] |  |  |  |  |  |  |  |  |  |  |  |  |  | Inhibition of bronchospasm induced by LTD4, % of inhibition ([2]; 2 min): 45%; Inhibition of bronchospasm induced by LTD4, % of inhibition ([2]; 4 min): 55%; Inhibition of bronchospasm induced by LTD4, % of inhibition ([2]; 10 min): 58%; Inhibition of bronchospasm induced by ovalbumin, % of inhibition ([4]; 2 min): 74%; Inhibition of bronchospasm induced by ovalbumin, % of inhibition ([4]; 4 min): 71%; Inhibition of bronchospasm induced by ovalbumin, % of inhibition ([4]; 10 min): 69%
O=C(O)c1ccccc1Sc1cccc(OCc2ccc3cc(Cl)ccc3n2)c1 [Compound 23, Tromethammonium salt of 2-(3-(6-Chloroquinoline-2-ylmethoxy)phenyl-sulfanyl)benzoic Acid] |  |  |  |  |  |  | 96% |  | 9% | 13.5 µM |  | 0.1 µM |  | Ear edema, D: edema of ear lobe, % of inh. (male mice; [11]): 1 (s) %; Ear edema, E: hyperemia of ear lobe, % of inh. (male mice; [11]): 8%; Experimental pleuritis, A: volume of exudate in pleural cavity, % of inh. (rats; 100 mg/kg): 17%; Experimental pleuritis, B: number of cells, % of inh. (rats; 100 mg/kg): 31%; Experimental pleuritis, C: cellularity in a volume unit, % of inh. (rats; 100 mg/kg): 17%; Inh. of LTB4 biosynth., IC50 [1]: 0.96 µg/mL; CE: inhibition of carrageenan-induced edema, % of inh. (Wistar-Han rats): 50%; Inh. of LTB4 rec. binding, % (LTB4 receptor; at 20 μM): 33%; inhibition at 20 µM (LTD4 receptor; at 20 μM, read-out: Inh. of LTD4 rec. binding, %): 99%
CCCc1c(OCCOc2cccc(Sc3ccc(C(=O)O)cc3)c2)ccc(C(C)=O)c1O [Compound 2, 4-(3-(2-(4-Acetyl-3-hydroxy-2-propylphenoxy)ethyloxy)phenylsulfanyl)benzoicAcid] | 18% | 2% | 2% | 43% | 46% | 0.8 µg/mL (≈ 1.71 µM) | 100% | 30% | 41% | 5.2 µM | 98% | 26.1 µM | 88% | 

— US6303612A, “Derivatives of hydroxyphenylsulfanylbenzoic and hydroxphenylsulfanylarylacetic acids” (Leciva, A.S., priority 1998, dated 2001)
